Source: ChEMBL document CHEMBL2384945, “Discovery of RG7112: A Small-Molecule MDM2 Inhibitor in Clinical Development” (ACS Med Chem Lett, 2013)

Assays:
[1] = Apparent half life in mouse at 50 mg/kg, po; type: ADME, organism-based; parameters: dose 50 mg/kg, route oral; conditions: in vivo, read-out: t1/2(app) (converted)
[2] = AUClast in mouse at 50 mg/kg, po; type: ADME, organism-based; parameters: time 0 - last, dose 50 mg/kg, route oral; conditions: plasma
[3] = Cmax in mouse at 50 mg/kg, po; type: ADME, organism-based; parameters: dose 50 mg/kg, route oral; conditions: in vivo
SW480 = test: cells; conditions: Homo sapiens, SW480, 120 h
Description: Cytotoxicity against human SW480 cells expressing p53 mutant assessed as cell viability after 5 days by MTT assay

MDA-MB-435 = test: cells; conditions: Homo sapiens, MDA-MB-435, 120 h
Description: Cytotoxicity against human MDA-MB-435 cells expressing p53 mutant assessed as cell viability after 5 days by MTT assay

RKO = test: cells; conditions: Homo sapiens, 120 h
Description: Cytotoxicity against human RKO cells expressing wild type p53 assessed as cell viability after 5 days by MTT assay

SJSA-1 [4] = test: cells; conditions: Homo sapiens, SJSA-1, 120 h
Description: Cytotoxicity against human SJSA1 cells expressing wild type p53 assessed as cell viability after 5 days by MTT assay

HCT-116 = test: cells; conditions: Homo sapiens, HCT-116, 120 h
Description: Cytotoxicity against human HCT116 cells expressing wild type p53 assessed as cell viability after 5 days by MTT assay

[5] = Antitumor activity against human MHM cells xenografted in po dosed mouse relative to nutlin-3a; type: functional
SJSA-1 [6] = test: animal or person; conditions: Mus musculus, SJSA-1, po, read-out: TGI
Description: Antitumor activity against human SJSA1 cells xenografted in nude mouse assessed as tumor growth inhibition at 50 mg/kg, po relative to control

[7] = AUClast in mouse at 100 mg/kg, po; type: ADME, organism-based; parameters: time 0 - last, dose 100 mg/kg, route oral; conditions: plasma
[8] = Cmax in mouse at 100 mg/kg, po; type: ADME, organism-based; parameters: dose 100 mg/kg, route oral; conditions: in vivo
[9] = Apparent half life in mouse at 100 mg/kg, po; type: ADME, organism-based; parameters: dose 100 mg/kg, route oral; conditions: in vivo, read-out: t1/2(app) (converted)

SMILES: CCOc1cc(C(C)(C)C)ccc1C1=N[C@@](C)(c2ccc(Cl)cc2)[C@@](C)(c2ccc(Cl)cc2)N1C(=O)N1CCN(CC(=O)N2CCCC2)CC1
- half-life [1]: 4.7 h
- AUC(0-t) [2]: 8300 ng·h/mL
- Cmax [3]: 2300 ng/mL
- IC50 (SW480): 14.4 µM
- IC50 (MDA-MB-435): 9.5 µM
- IC50 (RKO): 0.5 µM
- IC50 (SJSA-1 [4]): 0.3 µM
- IC50 (HCT-116): 0.7 µM

SMILES: CCOc1cc(C(C)(C)C)ccc1C1=N[C@@](C)(c2ccc(Cl)cc2)[C@@H](c2ccc(Cl)cc2)N1C(=O)N1CCN(CCCS(C)(=O)=O)CC1
- IC50 (SW480): > 30 µM
- IC50 (MDA-MB-435): > 30 µM
- IC50 (RKO): > 30 µM
- IC50 (SJSA-1 [4]): 12.4 µM
- IC50 (HCT-116): 14.4 µM

SMILES: CCOc1cc(C(C)(C)C)ccc1C1=N[C@@](C)(c2ccc(Cl)cc2)[C@@](C)(c2ccc(Cl)cc2)N1C(=O)N1CCN(CCNS(C)(=O)=O)CC1
- IC50 (SW480): 9.1 µM
- IC50 (MDA-MB-435): 7.3 µM
- IC50 (RKO): 0.3 µM
- IC50 (SJSA-1 [4]): 0.2 µM
- IC50 (HCT-116): 0.9 µM

SMILES: CCOc1cc(C(C)(C)C)ccc1C1=N[C@@](C)(c2ccc(Cl)cc2)[C@@](C)(c2ccc(Cl)cc2)N1C(=O)N1CCN(C(C)=O)CC1
- half-life [1]: 2.4 h
- AUC(0-t) [2]: 64900 ng·h/mL
- Cmax [3]: 19600 ng/mL
- IC50 (SW480): 17.8 µM
- IC50 (MDA-MB-435): 14.9 µM
- IC50 (RKO): 0.5 µM
- IC50 (SJSA-1 [4]): 0.3 µM
- IC50 (HCT-116): 0.6 µM

SMILES: CCOc1cc(C(C)(C)C)ccc1C1=N[C@@](C)(c2ccc(Cl)cc2)[C@@](C)(c2ccc(Cl)cc2)N1C(=O)N1CCN(CCC(F)(F)F)CC1
- IC50 (SW480): 5 µM
- IC50 (MDA-MB-435): 29.3 µM
- IC50 (RKO): 0.4 µM
- IC50 (SJSA-1 [4]): 2.5 µM
- IC50 (HCT-116): 1.3 µM

SMILES: CCOc1cc(C(C)(C)C)ccc1C1=N[C@@](CC)(c2ccc(Cl)cc2)[C@@](CC)(c2ccc(Cl)cc2)N1C(=O)N1CCN(CCCS(C)(=O)=O)CC1
- IC50 (SW480): 24.6 µM
- IC50 (MDA-MB-435): 28.2 µM
- IC50 (RKO): 12.5 µM
- IC50 (SJSA-1 [4]): > 30 µM
- IC50 (HCT-116): 13.7 µM

SMILES: CCOc1cc(C(C)(C)C)ccc1C1=N[C@@](C)(c2ccc(Cl)cc2)[C@@](C)(c2ccc(Cl)cc2)N1C(=O)N1CCCCC1
- IC50 (SW480): 23.1 µM
- IC50 (MDA-MB-435): 24.9 µM
- IC50 (RKO): 6.8 µM
- IC50 (SJSA-1 [4]): 7.3 µM
- IC50 (HCT-116): 10.7 µM

SMILES: CCOc1cc(C(C)(C)C)ccc1C1=N[C@@](C)(c2ccc(Cl)cc2)[C@@](C)(c2ccc(Cl)cc2)N1C(=O)N1CCNCC1
- IC50 (SW480): 2.7 µM
- IC50 (MDA-MB-435): 4.2 µM
- IC50 (RKO): 0.5 µM
- IC50 (SJSA-1 [4]): 0.6 µM
- IC50 (HCT-116): 1.2 µM

SMILES: CCOc1cc(C(C)(C)C)ccc1C1=N[C@@](C)(c2ccc(Cl)cc2)[C@@](C)(c2ccc(Cl)cc2)N1C(=O)N1CCN(CCCS(C)(=O)=O)CC1 [RO-5045337]
- fold change (FC) [5]: 4
- half-life [1]: 8.8 h
- AUC(0-t) [2]: 251000 ng·h/mL
- Cmax [3]: 15500 ng/mL
- IC50 (SW480): 16.6 µM
- IC50 (MDA-MB-435): 9.9 µM
- IC50 (RKO): 0.4 µM
- IC50 (SJSA-1 [4]): 0.3 µM
- IC50 (HCT-116): 0.5 µM
- inhibition in vivo at 50 mg/kg (SJSA-1 [6]): 74%

SMILES: CCOc1cc(C(C)(C)C)ccc1C1=N[C@@](C)(c2ccc(Cl)cc2)[C@@](C)(c2ccc(Cl)cc2)N1C(=O)N1CCNC(=O)C1
- IC50 (SW480): > 30 µM
- IC50 (MDA-MB-435): > 30 µM
- IC50 (RKO): 23.7 µM
- IC50 (SJSA-1 [4]): 7.6 µM
- IC50 (HCT-116): 16.4 µM

SMILES: CCOc1cc(C(C)(C)C)ccc1C1=N[C@@](C)(c2ccc(Cl)cc2)[C@@](C)(c2ccc(Cl)cc2)N1C(=O)N1CCN(CCNC(C)=O)CC1
- half-life [1]: 2.3 h
- AUC(0-t) [2]: 136000 ng·h/mL
- Cmax [3]: 12000 ng/mL
- IC50 (SW480): 11 µM
- IC50 (MDA-MB-435): 10.5 µM
- IC50 (RKO): 0.3 µM
- IC50 (SJSA-1 [4]): 0.1 µM
- IC50 (HCT-116): 0.5 µM

SMILES: CCOc1cc(C(C)(C)C)ccc1C1=N[C@@](C)(c2ccc(Cl)cc2)[C@@](C)(c2ccc(Cl)cc2)N1C(=O)N1CCN(CCO)CC1
- IC50 (SW480): 12.3 µM
- IC50 (MDA-MB-435): 9.6 µM
- IC50 (RKO): 0.3 µM
- IC50 (SJSA-1 [4]): 0.2 µM
- IC50 (HCT-116): 0.8 µM

SMILES: COc1ccc(C2=N[C@@H](c3ccc(Cl)cc3)[C@@H](c3ccc(Cl)cc3)N2C(=O)N2CCNC(=O)C2)c(OC(C)C)c1 [NUTLIN-3]
- AUC(0-t) [7]: 65000 ng·h/mL
- Cmax [8]: 12100 ng/mL
- half-life [9]: 2.6 h
- IC50 (RKO): 1.5 µM
- IC50 (SJSA-1 [4]): 1.5 µM
- IC50 (HCT-116): 1.5 µM

SMILES: CCOc1cc(C(C)(C)C)ccc1C1=N[C@@](C)(c2ccc(Cl)cc2)[C@@](C)(c2ccc(Cl)cc2)N1C(=O)N1CCN(CC(=O)N2CCOCC2)CC1
- IC50 (SW480): 14.4 µM
- IC50 (MDA-MB-435): 17.5 µM
- IC50 (RKO): 0.6 µM
- IC50 (SJSA-1 [4]): 0.2 µM
- IC50 (HCT-116): 0.6 µM
